Patent publication US10219513B2, “Safening 4-amino-3-chloro-6-(4-chloro-2-fluoro-3-methoxyphenyl)-5-fluoropyridine-2-carboxylic acid compositions in Brassica species and methods of use thereof” (Dow AgroSciences LLC, priority 2016, dated 2019)

Assays:
[1] = system: Brassica napus (all varieties of canola and oilseed rape, BRSNN); experiment: Greenhouse postemergence application, visual injury after 20-22 d, BRSNN
Experimental: (§1) Seeds of the desired test plant species were planted in Sun Gro MetroMix® 306 planting mixture, which typically has a pH of 6.0 to 6.8 and an organic matter content of about 30 percent, in plastic pots with a surface area of 103.2 square centimeters (cm^2). […] The plants were grown for 7-36 days (d) in a greenhouse with an approximate 14-hour (h) photoperiod which was maintained at about 23° C. during the day and 22° C. during the night. Nutrients and water were added on a regular basis and supplemental lighting was provided with overhead metal halide 1000-Watt lamps as necessary. The plants were employed for testing when they reached the second or third true leaf stage.
(§2) An aliquot of formulated benzyl 4-amino-3-chloro-6-(4-chloro-2-fluoro-3-methoxyphenyl)-5-fluoropyridine-2-carboxylate (florpyrauxifen-benzyl; 300 grams active ingredient per liter (g ai/L) suspension concentrate (SC)) was placed in a 25 mL glass vial and diluted in a volume of 1.25% (v/v) aqueous Agri-dex crop oil concentrated to obtain a stock solution. […] The concentrated stock solutions were diluted with an aqueous mixture of 1.25% v/v of aqueous Agri-dex crop oil concentrate to provide the appropriate application rates. Compound requirements are based upon a 12 milliliter (mL) application volume at a rate of 187 liters per hectare (L/ha). Stock solutions of the formulated materials were prepared following the same procedure. Spray solutions of the compound mixtures were prepared by adding the stock solutions to the appropriate amount of dilution solution to form a 12 mL spray solution. Formulated compounds were applied to the plant material with an overhead Mandel track sprayer equipped with 8002E nozzles calibrated to deliver 187 L/ha over an application area of 0.503 square meters (m^2) at a spray height of 18 inches (43 centimeters (cm)) above average plant canopy. Control plants were sprayed in the same manner with the solvent blank.
(§3) The treated plants and control plants were placed in a greenhouse as described above and watered by sub-irrigation to prevent wash-off of the test compounds. After 20-22 d, the condition of the test plants as compared with that of the control plants was determined visually and scored on a scale of 0 to 100 percent where 0 corresponds to no injury and 100 corresponds to complete kill. Colby's equation was used to determine the herbicidal effects expected from the mixtures.
(§4) Benzyl 4-amino-3-chloro-6-(4-chloro-2-fluoro-3-methoxyphenyl)-5-fluoropyridine-2-carboxylate (florpyrauxifen-benzyl, 300 g ai/L SC) was combined in two-, three-, and four-way mixtures with one or more of the following: clopyralid-olamine (as Lontrel™ 35A Herbicidal Concentrate), quinclorac (as Facet 75DF), isoxadifen-ethyl (100 g/L SC), cloquintocet-mexyl (120 g/L EC) or mefenpyr-diethyl (as mefenpyr-diethyl 15WP). The mixtures were applied to kale/Chinese kale (Brassica alboglabra, BRSAG), Juncea canola or brown mustard (Brassica juncea, BRSJU), rutabaga (Brassica napus var. napobrassica, BRSNA), all varieties of canola and oilseed rape (Brassica napus, BRSNN), Nexera™ canola (Brassica napus, BRSNN-NEX), winter oilseed rape (Brassica napus, BRSNW), Roundup Ready® canola (Brassica napus, RR-BRSNN), and turnip or Polish canola (Brassica rapa, BRSRR), and the phytotoxicity of the compositions was measured.
(§5) Colby's equation was used to determine the herbicidal effects expected from the mixtures evaluated in the described trials (Colby, S. R. Calculation of the synergistic and antagonistic response of herbicide combinations. Weeds 1967, 15, 20-22.).
(§6) The following equation was used to calculate the expected activity of mixtures containing two active ingredients, A and B: Expected=A+B−(A×B/100) • A=observed efficacy of active ingredient A at the same concentration as used in the mixture; • B=observed efficacy of active ingredient B at the same concentration as used in the mixture.

[2] = system: Brassica napus (winter oilseed rape, BRSNW); experiment: Greenhouse postemergence application, visual injury after 20-22 d, BRSNW
Experimental: as §1, §2, §3, §4, §5, §6

[3] = system: Brassica juncea (Juncea canola or brown mustard, BRSJU); experiment: Greenhouse postemergence application, visual injury after 20-22 d, BRSJU
Experimental: as §1, §2, §3, §4, §5, §6

[4] = system: Brassica napus (Roundup Ready canola, RR-BRSNN); experiment: Greenhouse postemergence application, visual injury after 20-22 d, RR-BRSNN
Experimental: as §1, §2, §3, §4, §5, §6

[5] = system: Brassica alboglabra (kale/Chinese kale, BRSAG); experiment: Greenhouse postemergence application, visual injury after 20-22 d, BRSAG
Experimental: as §1, §2, §3, §4, §5, §6

[6] = isoxadifen-ethyl 5 g ai/ha alone
[7] = isoxadifen-ethyl 10 g ai/ha alone
[8] = isoxadifen-ethyl 20 g ai/ha alone
[9] = isoxadifen-ethyl 40 g ai/ha alone
[10] = postemergence application, greenhouse, application rate (g ai/ha) varies

CCOC(=O)C1=NOC(c2ccccc2)(c2ccccc2)C1 [Isoxadifen-ethyl, ethyl 4,5-dihydro-5,5-diphenyl-1,2-oxazole-3-carboxyalte]
0%: % Visual Injury Obs ([1]; BRSNN, 5 g ai/ha) | % Visual Injury Obs ([1]; BRSNN, 10 g ai/ha) | % Visual Injury Obs ([1]; BRSNN, 20 g ai/ha) | % Visual Injury Obs ([1]; BRSNN, 40 g ai/ha) | Obs % visual injury ([1]; BRSNN, partner alone 5 g ai/ha) | Obs % visual injury ([1]; BRSNN, partner alone 10 g ai/ha) | Obs % visual injury ([1]; BRSNN, partner alone 20 g ai/ha) | Obs % visual injury ([1]; BRSNN, partner alone 40 g ai/ha) | % Visual Injury Obs [1, 6] | % Visual Injury Obs [1, 7] | % Visual Injury Obs [1, 8] | % Visual Injury Obs [1, 9] | % Visual Injury BRSNN Obs [1, 10] | % Visual Injury Obs ([2]; BRSNW, 5 g ai/ha) | % Visual Injury Obs ([2]; BRSNW, 10 g ai/ha) | % Visual Injury Obs ([2]; BRSNW, 20 g ai/ha) | % Visual Injury Obs ([2]; BRSNW, 40 g ai/ha) | Obs % visual injury ([2]; BRSNW, partner alone 5 g ai/ha) | Obs % visual injury ([2]; BRSNW, partner alone 10 g ai/ha) | Obs % visual injury ([2]; BRSNW, partner alone 20 g ai/ha) | Obs % visual injury ([2]; BRSNW, partner alone 40 g ai/ha) | % Visual Injury Obs [2, 6] | % Visual Injury Obs [2, 7] | % Visual Injury Obs [2, 8] | % Visual Injury Obs [2, 9] | % Visual Injury BRSNW Obs [2, 10] | % Visual Injury Obs ([3]; BRSJU, 5 g ai/ha) | % Visual Injury Obs ([3]; BRSJU, 10 g ai/ha) | % Visual Injury Obs ([3]; BRSJU, 20 g ai/ha) | % Visual Injury Obs ([3]; BRSJU, 40 g ai/ha) | Obs % visual injury ([3]; BRSJU, partner alone 5 g ai/ha) | Obs % visual injury ([3]; BRSJU, partner alone 10 g ai/ha) | Obs % visual injury ([3]; BRSJU, partner alone 20 g ai/ha) | Obs % visual injury ([3]; BRSJU, partner alone 40 g ai/ha) | % Visual Injury Obs [3, 6] | % Visual Injury Obs [3, 7] | % Visual Injury Obs [3, 8] | % Visual Injury Obs [3, 9] | % Visual Injury BRSJU Obs [3, 10] | % Visual Injury Obs ([4]; RR-BRSNN, 5 g ai/ha) | % Visual Injury Obs ([4]; RR-BRSNN, 10 g ai/ha) | % Visual Injury Obs ([4]; RR-BRSNN, 20 g ai/ha) | % Visual Injury Obs ([4]; RR-BRSNN, 40 g ai/ha) | Obs % visual injury ([4]; RR-BRSNN, partner alone 5 g ai/ha) | Obs % visual injury ([4]; RR-BRSNN, partner alone 10 g ai/ha) | Obs % visual injury ([4]; RR-BRSNN, partner alone 20 g ai/ha) | Obs % visual injury ([4]; RR-BRSNN, partner alone 40 g ai/ha) | % Visual Injury Obs [4, 6] | % Visual Injury Obs [4, 7] | % Visual Injury Obs [4, 8] | % Visual Injury Obs [4, 9] | % Visual Injury RR-BRSNN Obs [4, 10] | % Visual Injury Obs ([5]; BRSAG, 5 g ai/ha) | % Visual Injury Obs ([5]; BRSAG, 10 g ai/ha) | % Visual Injury Obs ([5]; BRSAG, 20 g ai/ha) | % Visual Injury Obs ([5]; BRSAG, 40 g ai/ha) | Obs % visual injury ([5]; BRSAG, partner alone 5 g ai/ha) | Obs % visual injury ([5]; BRSAG, partner alone 10 g ai/ha) | Obs % visual injury ([5]; BRSAG, partner alone 20 g ai/ha) | Obs % visual injury ([5]; BRSAG, partner alone 40 g ai/ha) | % Visual Injury Obs [5, 6] | % Visual Injury Obs [5, 7] | % Visual Injury Obs [5, 8] | % Visual Injury Obs [5, 9] | % Visual Injury BRSAG Obs [5, 10]
